In US7888360B2, “Pyridine and pyrimidine derivatives as inhibitors of histone deacetylase” (Janssen Pharmaceutica N.V., priority 2006, dated 2011):
Converted amounts (≈) assume the structure as drawn. Read-outs that look alike come from different tables or passages of the source.

What was measured:
[1] = molecular target: histone deacetylase (HeLa nuclear extracts); test: In vitro assay for inhibition of histone deacetylase (Fluor de Lys, HeLa nuclear extracts); format: biochemical; set-up: key: pIC50 = negative log of IC50; conditions: Fluor de Lys substrate
Source text: The HDAC Fluorescent Activity Assay/Drug Discovery Kit of Biomol (cat. No: AK-500-0001) was used. The HDAC Fluorescent Activity Assay is based on the Fluor de Lys (Fluorogenic Histone deAcetylase Lysyl) substrate and developer combination. The Fluor de Lys substrate, comprises an acetylated lysine side chain. Deacetylation of the substrate sensitizes the substrate so that, in the second step, treatment with the Fluor de Lys developer produces a fluorophore.
HeLa nuclear extracts (supplier: Biomol) were incubated at 60 μg/ml with 75 μM of substrate. The Fluor de Lys substrate was added in a buffer containing 25 mM Tris, 137 mM NaCl, 2.7 mM KCl and 1 mM MgCl2.6H2O at pH 7.4. After 30 min, 1 volume of the developer was added. The fluorophore was excited with 355 nm light and the emitted light (450 nm) was be detected on a fluorometric plate reader.
For each experiment, controls (containing HeLa nuclear extract and buffer), a blank incubation (containing buffer but no HeLa nuclear extract) and samples (containing compound dissolved in DMSO and further diluted in buffer and HeLa nuclear extract) were run in parallel. In first instance, compounds were tested at a concentration of 10^−5M. […] All sample were tested 4 times. In each test the blank value was subtracted from both the control and the sample values. The control sample represented 100% of substrate deactylation. For each sample the fluorescence was expressed as a percentage of the mean value of the controls. […] Herein the effects of test compounds are expressed as pIC50 (the negative log value of the IC50-value) (see Table F-2).

[2] = Kinetic solubility in aqueous media C.3.b (BD Gentest Solubility Scanner); format: physicochemical; conditions: aqueous buffer
Procedure: DMSO-stock solutions from 5000-9.8 μM (1/2 dilutions) are made in DMSO in a 96 well stock solution plate (200 μl per well). After each dilution the samples are mixed. Aliquots of these DMSO solutions (2 μl) are then transferred into 2 other 96 well buffer plates, containing 200 μl per well aqueous buffer. Each of the buffer plates contains either aqueous buffer pH 7.4 or aqueous buffer pH 4.0. After the last dilution the buffer plates are mixed and the samples are stabilized at room temperature for ½ hour. Dilution is done in duplicate for each compound to exclude occasional errors. Mixtures are then scanned in the BD Gentest Solubility Scanner for the occurrence of precipitation. Based on the absence/presence of precipitate in the mixtures the kinetic solubility is calculated by interpolation. Ranking is performed into the 3 classes. […] (see Table F-2).

[3] = test system: A2780 ovarian carcinoma cells; test: Antiproliferative activity on A2780 cells (MTT); format: cell-based, human; conditions: four days of incubation; for IC50: Homo sapiens, A2780, 96 h, read-out: Cellular activity pIC50 C.2. (converted)
Procedure: All compounds tested were dissolved in DMSO and further dilutions were made in culture medium. Final DMSO concentrations never exceeded 0.1% (v/v) in cell proliferation assays. Controls contained A2780 cells and DMSO without compound and blanks contained DMSO but no cells. MTT was dissolved at 5 mg/ml in PBS. A glycine buffer comprised of 0.1 M glycine and 0.1 M NaCl buffered to pH 10.5 with NaOH (1 N) was prepared (all reagents were from Merck).
The human A2780 ovarian carcinoma cells (a kind gift from Dr. T. C. Hamilton [Fox Chase Cancer Centre, Pa., USA]) were cultured in RPMI 1640 medium supplemented with 2 mM L-glutamine, 50 μg/ml gentamicin and 10% fetal calf serum. Cells were routinely kept as monolayer cultures at 37° C. in a humidified 5% CO2 atmosphere. Cells were passaged once a week using a trypsin/EDTA solution at a split ratio of 1:40. All media and supplements were obtained from Life Technologies. Cells were free of mycoplasma contamination as determined using the Gen-Probe Mycoplasma Tissue Culture kit (supplier: BioMérieux).
Cells were seeded in NUNC™ 96-well culture plates (Supplier: Life Technologies) and allowed to adhere to the plastic overnight. Densities used for plating were 1500 cells per well in a total volume of 200 μl medium. After cell adhesion to the plates, medium was changed and drugs and/or solvents were added to a final volume of 200 μl. Following four days of incubation, medium was replaced by 200 μl fresh medium and cell density and viability was assessed using an MTT-based assay. To each well, 25 μl MTT solution was added and the cells were further incubated for 2 hours at 37° C. The medium was then carefully aspirated and the blue MTT-formazan product was solubilized by addition of 25 μl glycine buffer followed by 100 μl of DMSO. […] Within an experiment, the results for each experimental condition are the mean of 3 replicate wells. For initial screening purposes, compounds were tested at a single fixed concentration of 10^−6 M. For active compounds, the experiments were repeated to establish full concentration-response curves. For each experiment, controls (containing no drug) and a blank incubation (containing no cells or drugs) were run in parallel. The blank value was subtracted from all control and sample values. For each sample, the mean value for cell growth (in absorbance units) was expressed as a percentage of the mean value for cell growth of the control. […] Herein the effects of test compounds are expressed as pIC50 (the negative log value of the IC50-value) (see Table F-2).

[4] = Solubility C.3.c (chemiluminescent nitrogen detector); format: physicochemical; conditions: aqueous buffer; pH = 2.3; read-out: Solubility C.3.c. pH = 2.3 mg/ml
Source text: The solubility of a compound, at different pH's, can also be measured with the use of a chemiluminescent nitrogen detector (see Table F-2).

[5] = not given; remark: listed apart in the source
[6] = Kinetic solubility in aqueous media C.3.a (nephelometer); format: physicochemical; conditions: aqueous buffer, kinetic from dmso stock; phosphate citrate buffer pH 7.4, turbidity score
Procedure: In the first dilution step, 10 μl of a concentrated stock-solution of the active compound, solubilized in DMSO (5 mM), was added to 100 μl phosphate citrate buffer pH 7.4 and mixed. In the second dilution step, an aliquot (20 μl) of the first dilution step was further dispensed in 100 μl phosphate citrate buffer pH 7.4 and mixed. Finally, in the third dilution step, a sample (20 μl) of the second dilution step was further diluted in 100 μl phosphate citrate buffer pH 7.4 and mixed. All dilutions were performed in 96-well plates. Immediately after the last dilution step the turbidity of the three consecutive dilution steps were measured with a nephelometer. Dilution was done in triplicate for each compound to exclude occasional errors. Based on the turbidity measurements a ranking is performed into 3 classes. Compounds with high solubility obtained a score of 3 and for this compounds the first dilution is clear. Compounds with medium solubility obtained a score of 2. For these compounds the first dilution is unclear and the second dilution is clear.

[7] = test system: p21 promoter reporter A2780 clone tumour; test: p21 induction in vivo method C.6.c (tumour fluorescence in nude mice); conditions: dosed orally or intravenously daily during 6 days, 20-40 mpk
Procedure: Another method tests the capacity of compounds to induce p21 as the consequence of HDAC inhibition at the cellular level. […] The reporter gene is a fluorescent protein and the expression of the reporter gene is measured as the amount of fluorescent light emitted (see example C.6.b.). The last method is an in vivo method wherein mice are used for screening the pharmaceutical activity of a compound. The above described stably transformed tumour cells can be administered to mice in an amount sufficient to effect production of a tumour. After the tumour cells had sufficient time to form a tumour, a potentially active compound can be administered to the animals and the effect of said compound on the tumour cells is evaluated by measuring the expression of the reporter gene. Incubation with pharmaceutical active compounds will result in an increase of reporter gene expression compared to the control levels (see example C.6.c.)
A selected clone was injected subcutaneous (10^7 cells/200 μl) into the flank of nude mice and a calliper measurable tumour was obtained after 12 days. […] Tumours were evaluated for fluorescence by the in-house developed Automated Whole Body Imaging System (Fluorescent stereomicroscope type Olympus® SZX12 equipped with a GFP filter and coupled to a CCD camera type JAI® CV-M90 controlled by a software package based on the IMAQ Vision Software from National Instruments®).

[8] = kinetic from dmso stock, pH = 4, score, read-out: Solubility C.3.b pH = 4.
[9] = pH 7.4, kinetic from dmso stock, pH = 7, score, read-out: Solubility C.3.b. pH = 7

Compound | melting point | Enzymatic activity pIC50 C.1. [1] | solubility at 0.5 h [2, 8] | solubility at 0.5 h [2, 9] | IC50 [3] | solubility [4] | % metabolism ([5]; human, 15 min, 5 μM) | % metabolism ([5]; after 15 min of incubation with active microsomes, compound 5 μM) | solubility [6] | tumour fluorescence (p21 reporter) in vivo [7] | Cellular activity pIC50 C.2. [3]
O=C(NO)c1cnc(N2CCN(C(CO)c3cn(S(=O)(=O)c4ccccc4)c4ccccc34)CC2)nc1 (stereo not drawn) [Compound 3] | 206 °C | >9 | 10 to 50 µM (≈ 5.23 to 26.1 µg/mL) | 10 to 50 µM (≈ 5.23 to 26.1 µg/mL) | < 31.6 nM |  |  |  |  |  | 
O=C(NO)c1cnc(N2CCN(C(CO)c3cc4ccccc4o3)CC2)nc1 (stereo not drawn) [Compound 8] |  | 9.0 | 10 to 50 µM (≈ 3.83 to 19.2 µg/mL) | 10 to 50 µM (≈ 3.83 to 19.2 µg/mL) | 31.6 nM | 2200 µg/mL (≈ 5.74 mM) |  |  |  |  | 
O=C(NO)c1cnc(N2CCN(C(CO)c3cc4ccccc4s3)CC2)nc1 (stereo not drawn) [Compound 2] | 165 °C | 10.1 | ≤ 10 µM | 10 to 50 µM (≈ 3.99 to 20 µg/mL) | 15.8 nM | 3250 µg/mL (≈ 8.14 mM) |  |  |  |  | 
COc1cc(N)c(Cl)cc1C(=O)NC1CCN(CCCOc2ccc(F)cc2)CC1OC (stereo not drawn) [Cisapride] |  |  |  |  |  |  | 45% |  |  |  | 
CC(C)(C)c1ccc(C(C(O)CO)N2CCN(c3ncc(C(=O)NO)cn3)CC2)cc1 (stereo not drawn) [Compound 5] | 138 to 154 °C | 7.5 |  |  | 100 nM | 1390 µg/mL (≈ 3.24 mM) |  |  |  |  | 
O=C(NO)c1cnc(N2CCN(C(CO)c3cccc4ccccc34)CC2)nc1 (stereo not drawn) [Compound 1] | 136 °C | 10.0 | 10 to 50 µM (≈ 3.93 to 19.7 µg/mL) | 10 to 50 µM (≈ 3.93 to 19.7 µg/mL) | 100 nM | 2900 µg/mL (≈ 7.37 mM) |  |  |  |  | 
O=C(NO)c1cnc(N2CCN(C(CO)c3ccc4ccccc4c3)CC2)nc1 (stereo not drawn) [Compound 7] |  | 9.7 | ≤ 10 µM | ≤ 10 µM | 20 nM |  |  |  |  |  | 
O=C(NO)c1cnc(N2CCN(C(CO)c3csc4ccccc34)CC2)nc1 (stereo not drawn) [Compound 9] |  | 9.8 |  |  | 50.1 nM |  |  |  |  |  | 
CCCO [propanol] |  |  |  |  |  |  |  | 25% |  |  | 
CCN(CC1CCN(c2ncc(C(=O)NO)cn2)CC1)C(CO)c1cc2ccccc2o1 (stereo not drawn) [Compound 4] | 90 °C | 7.9 | ≤ 10 µM | 10 to 50 µM (≈ 4.4 to 22 µg/mL) | 251 nM |  |  |  |  |  | 
CC(C)(C)c1ccc([C@H]([C@H](O)CO)N2CCN(c3ncc(C(=O)NO)cn3)CC2)cc1 [Compound 6] | 163 to 171 °C | 7.9 |  |  | 39.8 nM | 900 µg/mL (≈ 2.1 mM) |  |  | > 455 µM | comparable to R306465 | 
CC(C)(C)c1ccc(C(C(O)CO)N2CCN(c3ncc(C(=O)NO)cn3)CC2)cc1 (stereo not drawn) [Compound 10] |  | 7.0 |  |  |  |  |  |  | > 455 µM |  | 7.1
